We go through 21 molecules from patent publication US9149475B2, “Protein kinase C inhibitors and uses thereof” (Rigel Pharmaceuticals, Inc., priority 2009, dated 2015).

Molecules are shown by their SMILES. A value given as a limit tells only on which side of the number the result lay.

One experiment relates to Human primary T cells. Kind of experiment: IL-2 ELISA, human primary T cell, anti-CD3+CD28+ (whole cell assay). In kind it is cell-based. Particulars: Homo sapiens, T-cell, 24 h, human primary T cells stimulated with anti-CD3 + anti-CD28, 24 hours. The essentials: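 PBMC-derived T cells, pre-expanded on αCD3/αCD28 with IL-2 and then washed free of IL-2, were preincubated with compound for 1 hr at 37° C (100,000 cells/well). They were then stimulated on 1 μg/ml αCD3 plus 5 μg/ml αCD28 for 24 h, and supernatant IL-2 was measured by ELISA. The counter-assay used 0.5 ng/ml PMA plus 0.1 μM ionomycin instead.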
(In general: In an ELISA, binding on a coated surface is turned into a signal by an enzyme label.)
By IC50 is commonly meant the concentration that gives 50% inhibition. Turning to `CC1(C)CC(Nc2nc(Nc3cc(F)c(OC4CCN(S(C)(=O)=O)CC4)c(F)c3)ncc2F)CC(C)(C)N1` [III-84, N2-(3,5-difluoro-4-(1-(methylsulfonyl)piperidin-4-yloxy)phenyl)-5-fluoro-N4-(2,2,6,6-tetramethylpiperidin-4-yl)pyrimidine-2,4-diamine], the IC50 is above 1000 nM. On the same count and under the same terms, the figure for `CN1C(C)(C)CC(Nc2nc(Nc3ccc(OCCN4CCCC4)c(OC(F)F)c3)ncc2F)CC1(C)C` [Compound I-46, N2-(4-(2-(pyrrolidin-1-yl)ethoxy)-3-(difluoromethoxy)phenyl)-5-fluoro-N4-(1,2,2,6,6-pentamethylpiperidin-4-yl)pyrimidine-2,4-diamine] is below 250 nM; for `[2H]C([2H])([2H])N1C(C)(C)CC(Nc2nc(Nc3ccc(OC4CCN(C(C)C)CC4)c(OC(F)F)c3)ncc2F)CC1(C)C` [III-110, N2-(3-(difluoromethoxy)-4-(1-isopropylpiperidin-4-yloxy)phenyl)-5-fluoro-N4-(1-trideuteromethyl-2,2,6,6-tetramethylpiperidin-4-yl)pyrimidine-2,4-diamine] it is below 250 nM. The same measure, in the same setting: the figure for `Cc1nnnn1-c1cc(Nc2ncc(C#N)c(NC3CC(C)(C)NC(C)(C)C3)n2)ccc1F` [Compound I-18, 4-(2,2,6,6-tetramethylpiperidin-4-ylamino)-2-(4-fluoro-3-(5-methyl-1H-tetrazol-1-yl)phenylamino)pyrimidine-5-carbonitrile] is 250 to 500 nM; for `CC(C)N1CCC(Oc2ccc(Nc3ncc(F)c(NC4CC(C)(C)NC(C)(C)C4)n3)cc2Cl)CC1` [III-98, N2-(3-chloro-4-(1-isopropylpiperidin-4-yloxy)phenyl)-5-fluoro-N4-(2,2,6,6-tetramethylpiperidin-4-yl)pyrimidine-2,4-diamine] it is below 250 nM.

Regarding `CN1C(C)(C)CC(Nc2nc(Nc3ccc(OCCn4cncn4)c(OC(F)F)c3)ncc2C#N)CC1(C)C` [Compound I-54, 4-(1,2,2,6,6-pentamethylpiperidin-4-ylamino)-2-(4-(2-(1H-1,2,4-triazol-1-yl)ethoxy)-3-(difluoromethoxy)phenylamino)pyrimidine-5-carbonitrile], the IC50 lay in the range of 500 to 1000 nM. Take `CC1(C)CC(Nc2nc(Nc3ccc(OC4CCOCC4)c(OC(F)F)c3)ncc2F)CC(C)(C)N1` [III-23, N2-(3-(difluoromethoxy)-4-(tetrahydro-2H-pyran-4-yloxy)phenyl)-5-fluoro-N4-(2,2,6,6-tetramethylpiperidin-4-yl)pyrimidine-2,4-diamine]: the half-inhibitory concentration (IC50) lay within 250 to 500 nM. `CC(=O)N1CCC(Oc2ccc(Nc3ncc(F)c(NC4CC(C)(C)N(C)C(C)(C)C4)n3)cc2OC(F)F)CC1` [III-45, 1-(4-(2-(difluoromethoxy)-4-(5-fluoro-4-(1,2,2,6,6-pentamethylpiperidin-4-ylamino)pyrimidin-2-ylamino)phenoxy)piperidin-1-yl)ethanone]: the IC50 was in the range of 250 to 500 nM. In the case of `CC1(C)CC(Nc2nc(Nc3ccc(OCCCn4cccc4)c(OC(F)F)c3)ncc2F)CC(C)(C)N1` [Compound I-42, N2-(4-(3-(1H-pyrrol-1-yl)propoxy)-3-(difluoromethoxy)phenyl)-5-fluoro-N4-(2,2,6,6-tetramethylpiperidin-4-yl)pyrimidine-2,4-diamine], the IC50 was below 250 nM. Take `CN1C(C)(C)CC(Nc2nc(Nc3ccc(OC4CCN(CC(N)=O)CC4)c(F)c3)ncc2F)CC1(C)C` [III-33, 2-(4-(2-Fluoro-4-(5-fluoro-4-(1,2,2,6,6-pentamethylpiperidin-4-ylamino)pyrimidin-2-ylamino)phenoxy)piperidin-1-yl)acetamide]: the IC50 is above 1000 nM.

Turning to `CC(C)n1nnnc1-c1cccc(Nc2ncc(F)c(NC3CC(C)(C)N(C)C(C)(C)C3)n2)c1` [III-70, 5-fluoro-N2-(3-(1-isopropyl-1H-tetrazol-5-yl)phenyl)-N4-(1,2,2,6,6-pentamethylpiperidin-4-yl)pyrimidine-2,4-diamine], the IC50 is below 250 nM. Regarding `Cn1nnnc1-c1cc(Nc2ncc(F)c(NC3CC(C)(C)NC(C)(C)C3)n2)cc(C2CC2)c1` [III-147, N2-(3-cyclopropyl-5-(1-methyl-1H-tetrazol-5-yl)phenyl)-5-fluoro-N4-(2,2,6,6-tetramethylpiperidin-4-yl)pyrimidine-2,4-diamine], the IC50 was below 250 nM.

`CN1C(C)(C)CC(Nc2nc(Nc3ccc(OCCn4cncn4)c(OC(F)F)c3)ncc2F)CC1(C)C` [Compound I-27, N2-(4-(2-(1H-1,2,4-triazol-1-yl)ethoxy)-3-(difluoromethoxy)phenyl)-5-fluoro-N4-(1,2,2,6,6-pentamethylpiperidin-4-yl)pyrimidine-2,4-diamine]: the IC50 is below 250 nM. Consider `CC(C)N1CCC(Oc2ccc(Nc3ncc(F)c(NC4CC(C)(C)NC(C)(C)C4)n3)cc2OC(F)F)CC1` [Compound I-104, N2-(4-(1-isopropylpiperidin-4-yloxy)-3-(difluoromethoxy)phenyl)-5-fluoro-N4-(2,2,6,6-tetramethylpiperidin-4-yl)pyrimidine-2,4-diamine], for which the IC50 was below 250 nM. The same measure, in the same setting: the result for `CN1C(C)(C)CC(Nc2nc(Nc3ccc(Oc4cccnc4)c(C(F)(F)F)c3)ncc2F)CC1(C)C` [Compound I-61, 5-fluoro-N2-(3-(trifluoromethyl)-4-(pyridin-3-yloxy)phenyl)-N4-(1,2,2,6,6-pentamethylpiperidin-4-yl)pyrimidine-2,4-diamine] reads 500 to 1000 nM; that for `CC1(C)CC(Nc2nc(Nc3cc(F)cc(OCCN4CCCC4=O)c3)ncc2F)CC(C)(C)N1` [Compound I-37, 1-(2-(3-(4-(2,2,6,6-tetramethylpiperidin-4-ylamino)-5-fluoropyrimidin-2-ylamino)-5-fluorophenoxy)ethyl)pyrrolidin-2-one], above 1000 nM; that for `CN1C(C)(C)CC(Nc2nc(Nc3ccc(OC4CCN(CC(N)=O)CC4)c(OC(F)F)c3)ncc2F)CC1(C)C` [III-35, 2-(4-(2-(Difluoromethoxy)-4-(5-fluoro-4-(1,2,2,6,6-pentamethylpiperidin-4-ylamino)pyrimidin-2-ylamino)phenoxy)piperidin-1-yl)acetamide], 250 to 500 nM. Take `CC1(C)CC(Nc2nc(Nc3ccc(OCCN4CCNC4=O)c(OC(F)F)c3)ncc2F)CC(C)(C)N1` [Compound I-50, 1-(2-(4-(4-(2,2,6,6-tetramethylpiperidin-4-ylamino)-5-fluoropyrimidin-2-ylamino)-2-(difluoromethoxy)phenoxy)ethyl)imidazolidin-2-one]: the IC50 is above 1000 nM.

Still in this experiment, the particulars now being: human primary T cells stimulated with anti-CD3 + anti-CD28, 24 hours.
In the case of `Cc1ccc(C)n1-c1cc(Nc2ncc(F)c(NC3CC(C)(C)N(C)C(C)(C)C3)n2)ccc1F` [Compound I-100, N2-[3-(2,5-Dimethyl-pyrrol-1-yl)-4-fluoro]phenyl-5-fluoro-N4-(1,2,2,6,6-pentamethylpiperidin-4-yl)-2,4-pyrimidinediamine], the IC50 is below 250 nM. Consider `CC1(C)CC(Nc2nc(Nc3ccc4c(c3)OCCO4)ncc2F)CC(C)(C)N1` [II-10, N2-(3,4-Ethylenedioxy)phenyl-5-fluoro-N4-(2,2,6,6-tetramethylpiperidin-4-yl)-2,4-pyrimidinediamine], for which the IC50 was above 1000 nM. The same measure, in the same setting: the result for `CC(C)n1nnnc1-c1cccc(Nc2ncc(C#N)c(NC3CC(C)(C)N(C)C(C)(C)C3)n2)c1` [Compound I-88, 5-Cyano-N2-{3-[1-N-isopropyl-(tetrazol-5-yl)]}phenyl-N4-(1,2,2,6,6-pentamethylpiperidin-4-yl)-2,4-pyrimidinediamine] reads below 250 nM.
